# US20080108562A1, “Treatment Of Bone Metastases By Means Of Pth Receptor Agonists” (Ferring B.V., priority 2004, published 2008)
# Entries after “also recorded” stand apart in the source; their conditions may differ.
# Assays:
# [1] = biological target: T1, PTH receptor (Homo sapiens, UniProt Q03431); details: bone-related activities; relative to native 84 amino-acid hormone; cited from earlier work
# T1 sequence (Q03431 27-593): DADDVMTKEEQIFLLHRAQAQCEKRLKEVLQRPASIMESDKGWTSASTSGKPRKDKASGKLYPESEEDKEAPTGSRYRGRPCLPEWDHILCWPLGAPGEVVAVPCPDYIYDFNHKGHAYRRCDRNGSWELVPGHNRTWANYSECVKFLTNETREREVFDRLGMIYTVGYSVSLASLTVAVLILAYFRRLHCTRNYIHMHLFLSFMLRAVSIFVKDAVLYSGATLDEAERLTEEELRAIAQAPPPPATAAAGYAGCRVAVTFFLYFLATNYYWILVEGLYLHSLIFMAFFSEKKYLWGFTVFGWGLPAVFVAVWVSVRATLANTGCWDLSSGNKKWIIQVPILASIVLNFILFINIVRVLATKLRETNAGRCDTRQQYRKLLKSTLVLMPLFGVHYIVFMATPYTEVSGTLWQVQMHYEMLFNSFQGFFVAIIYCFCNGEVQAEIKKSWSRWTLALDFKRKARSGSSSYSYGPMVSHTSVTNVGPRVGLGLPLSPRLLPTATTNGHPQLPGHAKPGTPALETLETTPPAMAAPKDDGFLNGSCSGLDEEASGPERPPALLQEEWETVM
# [2] = tested on: adult C3H mice with murine CCL-11 (NCTC clone 2472) osteolytic sarcoma cells injected into the distal femur; test: Radiological analysis of bone density in animal model for metastatic bone disease; type: in vivo
# Description: (§1) An animal model for metastatic bone disease was established in adult C3H mice with murine sarcoma cells as described in Honore, et al., Neuroscience. (2000) 98(3):585-98 (see also Clohisy, et al. J Orthop Res. (1996) 14(3):396-402). In brief, murine CCL-11 (NCTC clone 2472) osteolytic sarcoma cells were injected into the distal femur. The injection site was closed with dental grade amalgam. Wounds were closed with wound clips. Wound clips were removed at day 6 to prevent interference with behavioral testing. Sham-injected and sarcoma-injected mice received daily subcutaneous injections of either 10 μl/kg vehicle or 10 μl/kg vehicle containing PTH (1-34) at 80 μg/ml concentration beginning after testing and radiographs were taken 6 d after injection of sarcoma cells. Treatment with PTH (1-34) or vehicle ended 14 d after injection, when final behavioral testing was done and the animals sacrificed.
# […] Mice were lightly anesthetized to prevent movement during the x-ray. The radiographs of the mouse femurs were scanned at maximal resolution (2400 dpi) and saved in digital grayscale format (TIFF). The grayscale levels were standardized for all radiographs by setting the amalgam region to white (grayscale value of 255) and the lower limit of the grayscale was set to the darkest pixels of the scanned image. The grayscale values correspond to the luminosity of the scanned images.
# The images were analyzed with Metamorph (Universal Imaging Corp, West Chester, Pa.). The bones were divided into 3 equal regions. Data were taken from the lower region at the site were sarcoma cells were injected. Thresholding was standardized to include all pixels with grayscale values between 2 to 76. Since grayscale values are related to luminosity, an increase in the threshold area represents an increase in darker, or lower density, bone area. The integrated intensity values for the regions were determined with Metamorph. Significant decreases in the intensity of a region indicates a significant reduction in bone density. […]
# [3] = tested on: adult C3H mice with murine CCL-11 (NCTC clone 2472) osteolytic sarcoma cells injected into the distal femur; test: Spontaneous limb use in animal model for metastatic bone disease; type: in vivo; details: metastatic bone tumor animals, day 14
# Description: as §1
# Spontaneous limb use was assessed as described by Luger et al (2001). The mouse was placed in an empty mouse pan and observed while walking across the pan in a continuous motion. Limping and/or guarding behavior of the right (sarcoma treated) hindlimb was rated on the following scale: 0=complete lack of use, 1=partial non-use, 2=limping and guarding, 3=limping, 4=normal walking.
# [4] = tested on: adult C3H mice with murine CCL-11 (NCTC clone 2472) osteolytic sarcoma cells injected into the distal femur; test: Flinching and guarding behavior in animal model for metastatic bone disease; type: in vivo; details: metastatic bone tumor animals, day 14
# Description: as §1
# To assess flinching and guarding behavior, animals were placed in raised plexiglass chambers with a wire grid floor for observation of flinching and guarding of the right hindlimb. The mice were allowed to acclimate to the chamber for 20 minutes. Guarding and flinching behaviors of each mouse were measured for 2 minutes. The number of flinches were counted, and the time spent guarding the foot (the foot is lifted off of the floor) was measured.
# [5] = tested on: adult C3H mice with murine CCL-11 (NCTC clone 2472) osteolytic sarcoma cells injected into the distal femur; test: Tactile allodynia (von Frey paw withdrawal threshold) in animal model for metastatic bone disease; type: in vivo; details: metastatic bone tumor animals, day 14
# Description: as §1, with “Treatment with PTH (1-34) or vehicle ended 14 d after injection, when final behavioral testing was done and the animals sacrificed.” left out
# Tactile allodynia was determined in the manner described by Chaplan et al. J Neurosci Methods (1994) 53(1):55-63. Paw withdrawal threshold was determined in response to probing with calibrated von Frey filaments. […] The 50% paw withdrawal threshold was determined by the non-parametric method of Dixon (Dixon, Annu Rev Pharmacol Toxicol 20:441-462, 1980). […] The 50% paw withdrawal threshold was determined as (10^[Xf+kδ])/10,000, where Xf=the value of the last von Frey filament employed, k=Dixon value for the positive/negative pattern, and δ=the mean (log) difference between stimuli. […]
# [6] = tested on: rats; details: rat, in vivo; cited from earlier work
substance,measurement,setting,value
"PTH(1-25): carboxyl-terminal truncation of PTH(1-34) (SVSEIQLMHNLGKHLNSMERVEWLR; UniProt P01270 32-56, looked up, fragment)",agonist activity of PTH fragment,[1],essentially inactive
"PTH(1-34): truncated form of parathyroid hormone, residues 1-34; PTH receptor agonist tested in the mouse model (SVSEIQLMHNLGKHLNSMERVEWLRKKLQDVHNF; listed as Homo sapiens)",bone density (optical density of x-ray radiographs),"[2]; normal (sham-injected) animals, daily s.c. PTH(1-34), day 14",some bone density increase
same,bone density (optical density of x-ray radiographs),"[2]; sarcoma bearing animals, daily s.c. from day 6, day 14",near normal bone density
same,bone density (optical density of x-ray radiographs),"[2]; sarcoma bearing animals, day 17, versus normal untreated animals",increase in density over that of normal untreated animals
same,limb use,[3],ameloriated pain
same,limb use,[3]; listed as PTH (1-34),returned to near normal levels
same,limb guarding,[4],ameloriated pain; also recorded: significantly reduced
same,spontaneous pain (spontaneous flinching),[4],ameloriated pain
same,tactile hypersensitivity (evoked pain),[5],not effected
same,tactile hypersensitivity (evoked pain),[5]; listed as PTH (1-34),did not effect
teriparatide acetate,risk of osteosarcoma (a malignant bone tumor),[6],increased risk of osteosarcoma
